Reference: US20100215759A1 (priority 2009, published 2010)
Like-named read-outs stand apart in the source and are kept apart here.

Assays:
CB2 receptors = biological target: T1, CB2 receptors (Mus musculus, UniProt P47936); test: biochemical; assay type: binding
T1 construct: the complete brain (excluding the cerebellum) and the spleen were quickly dissected and kept in ice; from tissue; host or cells: mouse spleen, membrane preparation
Procedure: (§1) The affinity of the synthesized compounds towards the CB1 and CB2 cannabinoidergic receptors was evaluated in vitro by radioreceptor binding studies using the method reported hereinunder.
(§2) The technique of the receptor binding allows to establish if, and with which affinity and specificity, a specific compound binds to a particular receptor. To evaluate the affinity of a specific compound to a particular receptor it is necessary to challenge in a particular tissue preparation wherein those specific receptors are present the compound to be tested with a radioactive labelled compound whose affinity for the same receptors is known. […] The amount of radioactivity present in the receptor-compound complex allows furthermore to estimate with great accuracy the amount of compound bound to the receptor. By said method it is therefore possible to establish quickly the affinity of a new compound towards a specific receptor and thus to determine its pharmacological activity. With the same experimental protocol it is possible to evaluate the affinity of the compound towards other receptors and thus establish its specificity degree toward said other receptors.
(§3) The food and water were ad libitum.
(§4) The procedure adopted, based on the use of the compound [^3H]-CP-55,940 (New England Nuclear, Boston, Mass., USA), requires the use of the mouse brain as biological tissue for the evaluation of the affinity towards the CB1 receptors and of the mouse spleen for the affinity assay for the CB2 receptors.
(§5) The animals were sacrificed by cervical dislocation and the complete brain (excluding the cerebellum) and the spleen were quickly dissected and kept in ice.
(§6) The tissue was homogenized in 15 volumes (weight/volume) of TME buffer (50 Mm Tris, 1 mM EDTA and 3 mM MgCl2, pH 7.4) by an Ultra-Turrax and subsequently centrifuged for 10 minutes at 1086×g in a centrifuge refrigerated at 4° C. The recovered supernatant was centrifuged at 45,000×g for 30 minutes at 4° C. by using a Beckman SW41 rotor and the obtained pellet was resuspended in 50 volumes of TME.
(§7) The thus obtained membranes (50-80 μg of proteins) were incubated in the presence of 1 nM of [^3H]-CP55.940 for 1 hour at 30° C. in a final volume of 0.5 ml of TME buffer containing 5 mg/ml of bovine serum albumin (BSA). The non specific binding was measured in the presence of CP55.940 at a 1 μM concentration.
(§8) All the experiments were carried out in polypropylene test tubes pretreated with Sigma-Cote (Sigma Chemical Co. Ltd., Poole, UK) for reducing non specific binding.
(§9) In order to determine the competitive inhibition binding curves, eight different concentrations of each compound were used.
(§10) Incubation was stopped by addition of TME buffer (at 4° C.) containing 5 mg/ml of BSA, and subsequent filtration under vacuum by Whatman GFC filters pretreated with 0.5% of polyethylamine (PEI) and by using a filtering device (Brandell, Gaithersburg, Md., USA). The filters were washed 3 times with […] of Tris HCl buffer (pH 7.4, 4° C.) containing 1 mg/ml of BSA and separately placed in plastic vials containing 4 ml of scintillating liquid (Ultima Gold MV, Packard).
(§11) The radioactivity present in the filters was determined by a scintillator spectrophotometer (Tricarb® 2100, Packard, Meridien, USA).
(§12) Protein determination was carried out by the Bradford method by using the protocol and the reactants supplied by Bio-Rad (Milano, Italy).

CB1 receptors = biological target: T2, CB1 receptors (Mus musculus, UniProt P47746); test: biochemical; assay type: binding
T2 construct: the complete brain (excluding the cerebellum) and the spleen were quickly dissected and kept in ice; from tissue; host or cells: mouse brain (excluding cerebellum), membrane preparation
T2 sequence (P47746 whole entry): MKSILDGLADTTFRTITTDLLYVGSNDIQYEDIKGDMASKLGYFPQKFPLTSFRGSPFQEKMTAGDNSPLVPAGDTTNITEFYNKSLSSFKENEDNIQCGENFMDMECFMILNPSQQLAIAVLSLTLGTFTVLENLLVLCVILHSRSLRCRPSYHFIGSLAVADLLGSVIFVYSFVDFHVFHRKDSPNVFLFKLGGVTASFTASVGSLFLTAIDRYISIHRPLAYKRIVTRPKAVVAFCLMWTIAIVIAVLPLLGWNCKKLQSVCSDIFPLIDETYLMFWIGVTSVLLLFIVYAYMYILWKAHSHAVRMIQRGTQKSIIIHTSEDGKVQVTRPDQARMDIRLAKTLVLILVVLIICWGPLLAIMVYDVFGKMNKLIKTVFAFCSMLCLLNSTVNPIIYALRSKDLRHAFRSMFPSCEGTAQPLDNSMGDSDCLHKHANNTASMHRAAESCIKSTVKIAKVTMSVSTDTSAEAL
Procedure: as §1, §2, §3, §4, §5, §6, §7, §8, §9, §10, §11, §12

mice = test: Hypothermia test in vivo (rectal temperature after i.p. administration); conditions: for Body Temperature: 40 mg/kg i.p.
Text: It is known that the compounds having a cannabomimetic activity show in vivo the following effects: hypoactivity, hypothermia, analgesia and catalepsy (B. R. Martin et al., Pharmacol. Biochem. Behav.; 1991, 40, 471-478; P. B. Smith et al.; J. Pharmacol. Exp. Ther.; 1994, 270, 219-227). In order to display thermoregulating activity, the compounds acting towards the cannabinoidergic receptors must be able to pass the haematoencephalic barrier since the central site of said temperature regulating receptors is positioned in the preoptical front core of the hypothalamus (S. M. Rawls et al.; J. Pharmacol. Exp. Ther.; 2002, 303, 395-402). After treatment with CB1 agonist compounds passing the haemato-encephalic barrier, the cannabimimetic activity is evidenced by a reduction of the body temperature. CB1 antagonist compounds that pass the haemato-encephalic barrier, have no influence on the body temperature and show an antagonist activity towards the reference CB1 agonists as WIN 55.212-2, thus hindering the hypothermia induced by the latter.
The tests have been carried out in the experimental animal (mice) according to the indications of M. Rinaldi-Carmona et al. in FEBS Letters; 1994, 350, 240-244. Rectal temperature in mice was determined by an electronic thermometer inserted at a 2 mm depth. The measurements were carried out on mice acclimatized for one hour. […]
The experiment was carried out with the compound of example 3.1. Said compound was dispersed in a carrier formed of a physiological solution added with Tween 80 (3 drops). The so prepared samples were used for treating the animals at a dose of the compound of 40 mg/kg of body weight. The blank was the carrier.
Each test was repeated on ten animals: the results obtained are therefore the average of the determinations made on ten animals.

[1] = mouse spleen membranes, 1 nM [3H]-CP55.940, read-out: CB2 (spleen) Ki
[2] = mouse brain membranes, 1 nM [3H]-CP55.940, read-out: CB1 (brain) Ki

T1 sequence (P47936 whole entry): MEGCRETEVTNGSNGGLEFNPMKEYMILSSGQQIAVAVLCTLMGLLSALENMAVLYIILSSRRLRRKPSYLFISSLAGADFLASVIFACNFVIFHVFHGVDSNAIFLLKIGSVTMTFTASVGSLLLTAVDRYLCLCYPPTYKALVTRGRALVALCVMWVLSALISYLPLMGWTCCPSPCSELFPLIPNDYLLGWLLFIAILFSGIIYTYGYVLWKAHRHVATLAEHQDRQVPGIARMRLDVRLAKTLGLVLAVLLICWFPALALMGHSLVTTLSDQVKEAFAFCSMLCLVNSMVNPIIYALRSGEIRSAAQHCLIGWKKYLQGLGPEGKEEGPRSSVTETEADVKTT

SMILES	Ki (CB2 receptors; [1]) [nM]	Ki (CB1 receptors; [2]) [nM]	Reduction of body temperature versus the carrier (mice; 40 mg/Kg)	Body Temperature (mice; 0 minutes from administration) [°C]	Body Temperature (mice; 15 minutes from administration) [°C]	Body Temperature (mice; 30 minutes from administration) [°C]	Body Temperature (mice; 60 minutes from administration) [°C]	Body Temperature (mice; 90 minutes from administration) [°C]	Body Temperature (mice; 120 minutes from administration) [°C]	Ki (CB2 receptors) [nM]	Ki (CB1 receptors) [nM]
CCOC(=O)c1nn(-c2ccc(S(N)(=O)=O)cc2)c2c1CCc1sccc1-2 [Compound (XA), 1-(4′-sulphonamidophenyl)-4,5-dihydro-1H-thieno[2,3-g]indazol-3-ethyl carboxylate]	> 5000	> 5000									
NC(=O)c1nn(-c2ccc(S(N)(=O)=O)cc2)c2c1CCc1sccc1-2 [Compound (XB), 1-(4′-sulphonamidophenyl)-4,5-dihydro-1H-thieno[2,3-g]indazol-3-carboxamide]	> 5000	> 5000									
Cc1ccc(Cn2nc(C(=O)NCC3CCC4CC3C4(C)C)c3c2-c2sc(C)cc2C3)cc1 (stereo not shown) [Example 3.1, N-myrtanyl-6-methyl-1-(4′-methylbenzyl)-1,4-dihydrothieno[3′,2′:4,5]cyclopenta[1,2-c]pyrazol-3-carboxamide]			significantly reduce the body temperature	37.9	36.1	34.8	35.0	36.7	37.2	48.3 ± 2.6	83.6 ± 14.6
